Source: PMC9064011 (RSC Advances, 2019)

Legend:
[1] = system: MCF-7 cells; experiment: MTT assay for tumor cell growth inhibition, MCF-7; format: cell-based; details: Homo sapiens, MCF7, 48 h, read-out: IC50 MCF-7
[2] = system: HepG2 cells; experiment: MTT assay for tumor cell growth inhibition, HepG2; format: cell-based; details: Homo sapiens, HepG2, 48 h, read-out: IC50 HepG2
[3] = system: HeLa cells; experiment: MTT cell growth inhibition; format: cell-based; details: Homo sapiens
[4] = system: L-O2 cells; experiment: MTT assay for cell growth inhibition, L-O2; format: cell-based; details: Homo sapiens, L02, 48 h, read-out: IC50 L-O2
[5] = system: Hypoxia Inducible Factor-1 (HIF-1) pathway; experiment: cells; details: Homo sapiens, HeLa, 12 h, read-out: HRE IC50
[6] = system: Hypoxia Inducible Factor-1 (HIF-1) pathway; details: dual luciferase reporter system
[7] = system: H322 cell; details: previous work in our laboratory, ref unpublished; cited from earlier work
[8] = system: hypoxia inducible factor-1 (HIF-1) transcription; details: dual luciferase reporter assay, previous work in our laboratory, ref unpublished; cited from earlier work

Structure (SMILES) | IC50 [1] [µM] | IC50 [2] [µM] | GI50 [3] [µM] | IC50 [4] [µM] | IC50 [5] [µM] | HIF inhibitory activity (in words) [6] | cytotoxicity against H322 cell [7] | inhibitory activity on HIF-1 transcription [8]
COC(=O)c1c(C#Cc2ccc(OC)cc2)cccc1-c1ccc(OC)cc1 [Compound 1a, Methyl 4′-methoxy-3-((4-methoxyphenyl)ethynyl)-[1,1′-biphenyl]-2-carboxylate] | > 100 | > 100 | > 100 | > 100 | 5.41 ± 1.1 | – | – | –
COc1ccc(C#Cc2cccc(-c3ccc(OC)cc3)c2C(=O)O)cc1 [Compound 1b, 4′-Methoxy-3-((4-methoxyphenyl)ethynyl)-[1,1′-biphenyl]-2-carboxylic acid] | > 100 | > 100 | > 100 | > 100 | 20.7 ± 2.5 | – | – | –
COc1ccc(C#Cc2cccc(-c3ccc(OC)cc3)c2C(=O)c2ccc(OC)cc2)cc1 [Compound 1c, (4′-Methoxy-3-((4-methoxyphenyl)ethynyl)-[1,1′-biphenyl]-2-yl)(4-methoxyphenyl)methanone] | 7.18 ± 1.2 | – | 3.75 ± 0.2 | – | 2.36 ± 0.4 | – | – | –
COc1ccc(C(=O)c2c(C#Cc3ccc(O)cc3)cccc2-c2ccc(O)cc2)cc1 [Compound 1d, (4′-Hydroxy-3-((4-hydroxyphenyl)ethynyl)-[1,1′-biphenyl]-2-yl)(4-methoxyphenyl)methanone] | 51.2 ± 0.6 | 54.8 ± 1.9 | 44.81 ± 0.2 | 64 ± 1 | 9.52 ± 0.4 | – | – | –
O=c1oc(-c2ccc(O)cc2)cc2cccc(-c3ccc(O)cc3)c12 [Compound 1e, 3,8-Bis(4-hydroxyphenyl)-1H-isochromen-1-one] | 95.57 ± 0.4 | 55.5 ± 1.9 | 86.31 ± 0.5 | 92.5 ± 2 | 13.7 ± 0.4 | – | – | –
COC(=O)c1cc(C#Cc2ccc(OC)cc2)ccc1-c1ccc(OC)cc1 [Compound 2a, Methyl 4′-methoxy-4-((4-methoxyphenyl)ethynyl)-[1,1′-biphenyl]-2-carboxylate] | > 100 | > 100 | > 100 | > 100 | 18.3 ± 1.6 | – | – | –
COc1ccc(C#Cc2ccc(-c3ccc(OC)cc3)c(C(=O)O)c2)cc1 [Compound 2b, 4′-Methoxy-4-((4-methoxyphenyl)ethynyl)-[1,1′-biphenyl]-2-carboxylic acid] | > 100 | > 100 | > 100 | > 100 | 15.6 ± 1.6 | – | – | –
COc1ccc(C#Cc2ccc(-c3ccc(OC)cc3)c(C(=O)c3ccc(OC)cc3)c2)cc1 [Compound 2c, (4′-Methoxy-4-((4-methoxyphenyl)ethynyl)-[1,1′-biphenyl]-2-yl)(4-methoxyphenyl)methanone] | > 100 | > 100 | > 100 | > 100 | 39.9 ± 3.1 | – | – | –
COc1ccc(C(=O)c2cc(C#Cc3ccc(O)cc3)ccc2-c2ccc(O)cc2)cc1 [Compound 2d, (4′-Hydroxy-4-((4-hydroxyphenyl)ethynyl)-[1,1′-biphenyl]-2-yl)(4-methoxyphenyl)methanone] | 6.49 ± 0.1 | 24.99 ± 0.1 | 3.24 ± 0.1 | 7.83 ± 1.2 | 4.47 ± 0.6 | – | – | –
COc1ccc(C#Cc2ccc(-c3ccc(OC)cc3)c(C(O)(c3ccc(OC)cc3)c3ccc(OC)cc3)c2)cc1 [Compound 2e, (4′-Methoxy-4-((4-methoxyphenyl)ethynyl)-[1,1′-biphenyl]-2-yl)bis(4-methoxyphenyl)methanol] | > 100 | > 100 | > 100 | > 100 | 20.8 ± 0.8 | – | – | –
CCCCC(O)(c1ccc(OC)cc1)c1cc(C#Cc2ccc(OC)cc2)ccc1-c1ccc(OC)cc1 (stereo not shown) [Compound 2f, 1-(4′-methoxy-4-((4-methoxyphenyl)ethynyl)-[1,1′-biphenyl]-2-yl)-1-(4-methoxyphenyl)pentan-1-ol] | > 100 | > 100 | > 100 | > 100 | 1.89 ± 0.4 | – | – | –
COc1ccc(-c2ccc(C#Cc3ccc(O)cc3)cc2C(O)(c2ccc(OC)cc2)c2ccc(OC)cc2)cc1 [Compound 2g, 4-((2-(Hydroxybis(4-methoxyphenyl)methyl)-4′-methoxy-[1,1′-biphenyl]-4-yl)ethynyl)phenol] | 13 ± 0.7 | 15.1 ± 0.6 | 15.48 ± 0.1 | 16.4 ± 1.3 | 8.1 ± 1.4 | – | – | –
COc1ccc(C(O)(c2ccc(OC)cc2)c2cc(C#Cc3ccc(O)cc3)ccc2-c2ccc(O)cc2)cc1 [Compound 2h, 2′-(hydroxybis(4-methoxyphenyl)methyl)-4′-((4-hydroxyphenyl)ethynyl)-[1,1′-biphenyl]-4-ol] | 11.9 ± 0.5 | 11.8 ± 0.8 | 10.8 ± 0.3 | 10.6 ± 1.1 | 2.52 ± 0.4 | – | – | –
COc1ccc(C2(c3ccc(OC)cc3)c3cc(O)ccc3-c3ccc(C#Cc4ccc(O)cc4)cc32)cc1 [Compound 2i, 7-((4-Hydroxyphenyl)ethynyl)-9,9-bis(4-methoxy-phenyl)-9H-fluoren-2-ol] | 9.23 | 8.96 ± 0.4 | 7.58 ± 0.1 | 10.9 ± 1 | 5.55 ± 1.3 | – | – | –
COc1ccc(C(=C2C=CC(=O)C=C2)c2cc(C#Cc3ccc(O)cc3)ccc2-c2ccc(O)cc2)cc1 [Compound 2j, 4-((4′-Hydroxy-4-((4-hydroxyphenyl)ethynyl)-[1,1′-biphenyl]-2-yl)(4-methoxyphenyl)methylene)cyclohexa-2,5-dien-1-one] | 12.1 ± 0.1 | 11.6 ± 0.6 | 4.47 ± 0.5 | 11.1 ± 0.7 | – | little HIF inhibitory activity | – | –
Cc1ccc(-c2ccc(O)cc2)c(C(=C2C=CC(=O)C=C2)c2ccccc2)c1C#Cc1ccc(O)cc1 [selaginellin A] | – | – | – | – | – | – | moderately cytotoxic | displayed inhibitory activity
Cc1ccc(-c2ccc(O)cc2)c(C(=C2C=CC(=O)C=C2)c2ccc(O)cc2)c1C#Cc1ccc(O)cc1 [selaginellin B] | – | – | – | – | – | – | moderately cytotoxic | –
